This assay addresses Gag' (GST-Gag) (Human immunodeficiency virus type 1 group M subtype B, UniProt P12493). In kind it is binding, HIV-1. Conditions: DSF validation.

Molecules are shown by their SMILES. “Also recorded” adds a separate entry of the source.

Consider `C=C(C)[C@@H]1CC[C@]2(C(=O)O)CC[C@]3(C)[C@H](CC[C@@H]4[C@@]5(C)CC[C@H](OC(=O)CC(C)(C)C(=O)O)C(C)(C)[C@@H]5CC[C@]43C)[C@@H]12` [Bevirimat], for which the “thermal stability (Tm) of Gag' in complex” value is listed as “increased the thermal stability; also recorded: higher melting temperature”.
